Source: ChEMBL document CHEMBL3885881, “DrugMatrix”

Species: Rattus norvegicus
Assay: DrugMatrix - Regimen: Daily Repeat
Type: toxicity, organism-based, Sprague-Dawley
Set-up: regimen Daily Repeat, gender Male, age 6-8 weeks
Conditions: in vivo, iv, vehicle 100 % SALINE; for ABSOLUTE BASOPHIL / ABSOLUTE EOSINOPHIL / ABSOLUTE LYMPHOCYTE / ABSOLUTE MONOCYTE / ABSOLUTE SEGMENTED NEUTROPHIL / BASOPHIL / EOSINOPHIL / ERYTHROCYTE COUNT / HEMATOCRIT / HEMOGLOBIN / LEUKOCYTE COUNT / LYMPHOCYTE / MEAN CORPUSCULAR HEMOGLOBIN / MEAN CORPUSCULAR HEMOGLOBIN CONCENTRATION / MEAN CORPUSCULAR VOLUME / MONOCYTE / NEUTROPHIL / NUCLEATED RED BLOOD CELLS: tissue Blood; for ALANINE AMINOTRANSFERASE / ALKALINE PHOSPHATASE / ASPARTATE AMINOTRANSFERASE / BLOOD UREA NITROGEN / CARBON DIOXIDE / CHOLESTEROL / CREATINE PHOSPHOKINASE / CREATININE / GLUCOSE / LACTATE DEHYDROGENASE / LIPASE / SODIUM / TOTAL BILIRUBIN / TOTAL PROTEIN / URIC ACID: tissue Plasma
[1] = 3 mg/kg, 120 h, dose level High, time 5 day
[2] = […], 72 h, dose 0.65 mg/Kg, dose level Low, time 3 day
[3] = […], 120 h, dose 0.65 mg/Kg, dose level Low, time 5 day

COc1cccc2c1C(=O)c1c(O)c3c(c(O)c1C2=O)C[C@@](O)(C(=O)CO)C[C@@H]3O[C@H]1C[C@H](N)[C@H](O)[C@H](C)O1 [DOXORUBICIN]
ABSOLUTE BASOPHIL [1]: 0 CELLS/uL
ABSOLUTE EOSINOPHIL [1]: 17.33 CELLS/uL
ABSOLUTE LYMPHOCYTE [1]: 1693 CELLS/uL
ABSOLUTE MONOCYTE [1]: 0 CELLS/uL
ABSOLUTE SEGMENTED NEUTROPHIL [1]: 589.67 CELLS/uL
BASOPHIL [1]: 0%
EOSINOPHIL [1]: 0.67%
ERYTHROCYTE COUNT [1]: 5.12 x10E6/uL
HEMATOCRIT [1]: 32.6%
HEMOGLOBIN [1]: 12.83 G/DL
LEUKOCYTE COUNT [1]: 2.3 x10E3/uL
LYMPHOCYTE [1]: 74%
MEAN CORPUSCULAR HEMOGLOBIN [1]: 25.07 pg
MEAN CORPUSCULAR HEMOGLOBIN CONCENTRATION [1]: 39.4 G/DL
MEAN CORPUSCULAR VOLUME [1]: 63.73 fL
MONOCYTE [1]: 0%
NEUTROPHIL [1]: 25.33%
NUCLEATED RED BLOOD CELLS [1]: 0 /100WBC
ALANINE AMINOTRANSFERASE [1]: 34 u/L
ALKALINE PHOSPHATASE [1]: 189.67 u/L
ASPARTATE AMINOTRANSFERASE [1]: 86.33 u/L
BLOOD UREA NITROGEN [1]: 12.33 mg/dL
CARBON DIOXIDE [1]: 25.67 mmol/L
CHOLESTEROL [1]: 95.67 mg/dL
CREATINE PHOSPHOKINASE [1]: 299.33 u/L
CREATININE [1]: 0.1 mg/dL
GLUCOSE [1]: 147.67 mg/dL
LACTATE DEHYDROGENASE [1]: 73.33 u/L
LIPASE [1]: 8.33 u/L
SODIUM [1]: 144.9 MEQ/L
TOTAL BILIRUBIN [1]: 0.1 mg/dL
TOTAL PROTEIN [1]: 5.77 G/DL
URIC ACID [1]: 0.4 mg/dL
ABSOLUTE BASOPHIL [2]: 0 CELLS/uL
ABSOLUTE EOSINOPHIL [2]: 0 CELLS/uL
ABSOLUTE LYMPHOCYTE [2]: 6184 CELLS/uL
ABSOLUTE SEGMENTED NEUTROPHIL [2]: 275.33 CELLS/uL
BASOPHIL [2]: 0%
EOSINOPHIL [2]: 0%
ERYTHROCYTE COUNT [2]: 5.13 x10E6/uL
HEMATOCRIT [2]: 33%
HEMOGLOBIN [2]: 13.03 G/DL
LEUKOCYTE COUNT [2]: 6.5 x10E3/uL
LYMPHOCYTE [2]: 94.67%
MEAN CORPUSCULAR HEMOGLOBIN [2]: 25.47 pg
MEAN CORPUSCULAR HEMOGLOBIN CONCENTRATION [2]: 39.5 G/DL
MEAN CORPUSCULAR VOLUME [2]: 64.47 fL
MONOCYTE [2]: 0.67%
NEUTROPHIL [2]: 4.67%
NUCLEATED RED BLOOD CELLS [2]: 0 /100WBC
ALANINE AMINOTRANSFERASE [2]: 48.33 u/L
ALKALINE PHOSPHATASE [2]: 370 u/L
ASPARTATE AMINOTRANSFERASE [2]: 79.33 u/L
BLOOD UREA NITROGEN [2]: 12.33 mg/dL
CARBON DIOXIDE [2]: 30.33 mmol/L
CHOLESTEROL [2]: 68.33 mg/dL
CREATINE PHOSPHOKINASE [2]: 280.67 u/L
CREATININE [2]: 0.29 mg/dL
GLUCOSE [2]: 179 mg/dL
LACTATE DEHYDROGENASE [2]: 81.33 u/L
LIPASE [2]: 10.33 u/L
SODIUM [2]: 144.23 MEQ/L
TOTAL BILIRUBIN [2]: 0.1 mg/dL
TOTAL PROTEIN [2]: 5.93 G/DL
URIC ACID [2]: 0.87 mg/dL
ABSOLUTE BASOPHIL [3]: 0 CELLS/uL
ABSOLUTE EOSINOPHIL [3]: 49.33 CELLS/uL
ABSOLUTE LYMPHOCYTE [3]: 5081.33 CELLS/uL
ABSOLUTE MONOCYTE [3]: 14 CELLS/uL
ABSOLUTE SEGMENTED NEUTROPHIL [3]: 188.67 CELLS/uL
BASOPHIL [3]: 0%
EOSINOPHIL [3]: 1%
ERYTHROCYTE COUNT [3]: 5.28 x10E6/uL
HEMATOCRIT [3]: 34.1%
HEMOGLOBIN [3]: 13.37 G/DL
LEUKOCYTE COUNT [3]: 5.33 x10E3/uL
LYMPHOCYTE [3]: 95%
MEAN CORPUSCULAR HEMOGLOBIN [3]: 25.3 pg
MEAN CORPUSCULAR HEMOGLOBIN CONCENTRATION [3]: 39.17 G/DL
MEAN CORPUSCULAR VOLUME [3]: 64.67 fL
MONOCYTE [3]: 0.33%
NEUTROPHIL [3]: 3.67%
NUCLEATED RED BLOOD CELLS [3]: 0 /100WBC
ALANINE AMINOTRANSFERASE [3]: 34.67 u/L
ALKALINE PHOSPHATASE [3]: 365.33 u/L
ASPARTATE AMINOTRANSFERASE [3]: 74.67 u/L
BLOOD UREA NITROGEN [3]: 14 mg/dL
CARBON DIOXIDE [3]: 26 mmol/L
CHOLESTEROL [3]: 68.67 mg/dL
CREATINE PHOSPHOKINASE [3]: 222 u/L
CREATININE [3]: 0.14 mg/dL
GLUCOSE [3]: 156 mg/dL
LACTATE DEHYDROGENASE [3]: 60 u/L
LIPASE [3]: 9 u/L
SODIUM [3]: 145.47 MEQ/L
TOTAL BILIRUBIN [3]: 0.1 mg/dL
TOTAL PROTEIN [3]: 5.63 G/DL
URIC ACID [3]: 0.23 mg/dL
